Values of other authors, collected in patent US20250114388A1, “ACTIVE PHARMACEUTICAL INGREDIENT COMPOSITIONS AND PREPARATION AND USES THEREOF” (Dr. Anti Fungus, LLC, priority 2023, published 2025).
*1 amine or outer side, *2 acyl side, *3 side chain or, on linkers, in order; H or OH if unused. Where a SMILES comes first, the peptide text is derived from it. Bridges are numbered along the chain shown (N, C = ends). [ ]: non-standard residue; d: D form. The star is where a group is joined. pTerphenylCO(4''-OnC5H11) = CCCCCOc1ccc(-c2ccc(-c3ccc(C(=O)*)cc3)cc2)cc1; Orn(4R-OH,5R-OH) = O=C([C@H](C[C@@H](O)[C@@H](O)N[*:3])N[*:1])[*:2]; hTyr(3S-OH,4S-OH) = N[C@H](C(=O)O)[C@H](O)[C@@H](O)c1ccc(O)cc1; Pro(3S-OH,4S-Me) = C[C@H]1CN[C@H](C(=O)O)[C@H]1O; Hyp = O=C(O)[C@@H]1C[C@@H](O)CN1

| solubility in water | SMILES |
| --- | --- |
| insoluble | Clc1ccc(COC(Cn2ccnc2)c2ccc(Cl)cc2Cl)cc1 (centres unmarked) [econazole] |
| insoluble | Clc1ccc(COC(Cn2ccnc2)c2ccc(Cl)cc2Cl)c(Cl)c1 (centres unmarked) [miconazole] |
| insoluble | Cc1cccc(N(C)C(=S)Oc2ccc3ccccc3c2)c1 [tolnaftate] |
| sparingly soluble | CN(C/C=C/C#CC(C)(C)C)Cc1cccc2ccccc12 [terbinafine] |
| sparingly soluble | OC(Cn1cncn1)(Cn1cncn1)c1ccc(F)cc1F [fluconazole] |
| insoluble | CCC(C)n1ncn(-c2ccc(N3CCN(c4ccc(OCC5COC(Cn6cncn6)(c6ccc(Cl)cc6Cl)O5)cc4)CC3)cc2)c1=O (centres unmarked) [itraconazole] |

Further lines, the compound ahead of its results:

| SMILES | solubility in water |
| --- | --- |
| Clc1ccccc1C(c1ccccc1)(c1ccccc1)n1ccnc1 [clotrimazole] | insoluble |
| C[C@@H]1[C@H](O)[C@@H](C)/C=C/C=C/CC/C=C/C=C/C=C/C=C/C(O[C@H]2O[C@H](C)[C@@H](O)[C@H](N)[C@@H]2O)CC2O[C@](O)(CC(O)C(O)CCC(O)CC(O)CC(O)CC(=O)O[C@H]1C)CC(O)C2C(=O)O (some centres unmarked) [nystatin] | sparingly soluble |
| CC(=O)N1CCN(c2ccc(OCC3COC(Cn4ccnc4)(c4ccc(Cl)cc4Cl)O3)cc2)CC1 (centres unmarked) [ketoconazole] | insoluble |
| CCCCCOc1ccc(-c2ccc(-c3ccc(C(=O)N[C@H]4C[C@@H](O)[C@@H](O)NC(=O)[C@@H]5[C@@H](O)[C@@H](C)CN5C(=O)[C@H]([C@@H](C)O)NC(=O)[C@H]([C@H](O)[C@@H](O)c5ccc(O)cc5)NC(=O)[C@@H]5C[C@@H](O)CN5C(=O)[C@H]([C@@H](C)O)NC4=O)cc3)cc2)cc1 [anidulafungine] ({pTerphenylCO(4''-OnC5H11)}-[Orn(4R-OH,5R-OH)]T[Hyp][hTyr(3S-OH,4S-OH)]T[Pro(3S-OH,4S-Me)]; lactam 1-C) | insoluble |
| C[C@@H]1[C@H](O)[C@@H](C)/C=C/C=C/C=C/C=C/C=C/C=C/C=C/[C@H](O[C@@H]2O[C@H](C)[C@@H](O)[C@H](N)[C@@H]2O)C[C@@H]2O[C@](O)(C[C@@H](O)C[C@@H](O)[C@H](O)CC[C@@H](O)C[C@@H](O)CC(=O)O[C@H]1C)C[C@H](O)[C@H]2C(=O)O [amphotericin B] | insoluble |
